Data published in patent US20240226025A1, “POLYNUCLEOTIDES ENCODING METHYLMALONYL-COA MUTASE FOR THE TREATMENT OF METHYLMALONIC ACIDEMIA” (ModernaTX, Inc., priority 2021, published 2024).

System: CD-1 mice
Assay: Expression of luciferase induced by lipid nanoparticles in mice (bioluminescence)
Format: in vivo, mouse
Conditions: luciferase mRNA LNP
Description: To further assess potency of expression and metabolic stability of lipids of the disclosure, expression of luciferase was measured following administration to rodents of a nanoparticle of the disclosure comprising an mRNA containing luciferase.
Lipid nanoparticles including DSPC as a phospholipid, cholesterol as a structural lipid, Compound I as a PEG lipid, an ionizable amino lipid of Formula (II), and an mRNA encoding luciferase were intravenously administered to CD-1 mice and Sprague Dawley rats. […]

CCCCCCCCC(CCCCCCCC)OC(=O)CCCCCCCN(CCCCCCCC(=O)OCC(CCCC)CCCCCCC)CCCNc1c(NC)c(=O)c1=O (stereo not shown) [Compound 10]
Total Whole Body Flux @ 6 h (p/s): 4.6E+09 p/s
